Results reported in patent US8178538B2, “Pyridazinones” (Hoffmann-La Roche Inc., priority 2008, dated 2012).

Target: T1, PDE10A2 (Homo sapiens, UniProt Q9Y233)
T1 construct: residues serine 449 to aspartate 789; His6 (H6) with thrombin cleavage site (N, cleaved yes); made in house; host or cells: E. coli BL21(DE3) pLysS
Assay: PDE10A2 inhibition, Scintillation Proximity Assay (SPA)
Format: biochemical
Settings: catalytic domain of human PDE10A2 (S449-D789), 0.25 nM enzyme, 50 nM cGMP + 50 nM [3H]-cGMP, 30 minutes at room temperature
Description: The following tests were carried out in order to determine the activity of the compounds of the present invention. PDE10 activity of the compounds of the present invention is determined using a Scintillation Proximity Assay (SPA)-based method similar to the one previously described (Fawcett, L. et al., Proc Natl Acad Sci USA (2000) 97(7):3702-3707).
PDE10A1 and PDE10A2 are two splice variants of PDE10A. There are these 2 splice variants known, which differ in the N-terminal part of the protein. The catalytic domains of PDE10A1 and PDE10A2 are identical. The assay for PDE10A2 described below is therefore also representative for PDE10A1 and also for PDE10A in general.
The PDE10A2 assay was performed in a two step procedure in 96-well micro titer plates. The reaction mixture of 80 μl contained 20 mM HEPES/10 mM MgCl2/[…] (pH 7.5), 50 nM cGMP (Sigma) and 50 nM [^3H]-cGMP (GE Healthcare), 0.25 nM PDE10A2 with or without a specific test compound. A range of concentrations of the potential inhibitor was used to generate data for calculating the concentration of inhibitor resulting in 50% of the effect (e.g. IC50, the concentration of the competitor inhibiting PDE10A2 activity 50%). Non-specific activity was tested without the enzyme. The reaction was initiated by addition of the substrate solution (cGMP and [^3H]-cGMP) and allowed to progress for 30 minutes at room temperature. The reaction was terminated by transferring 50 μl of the reaction mixture into an OptiPlate (Perkin Elmer) containing 25 μl of YSi-SPA scintillation beads (GE Healthcare) in 18 mM zinc sulphate solution (stop reagent). After 1 h under shaking, the plate was centrifuged one minute at 1000 rpm to allow beads to settle. Afterwards, radioactive counts were measured on a Perkin Elmer TopCount Scintillation plate reader.
The catalytic domain of human PDE10A2, residues serine 449 to aspartate 789, was amplified by PCR using cDNA (Origene) and the oligonucleotides 5′-GGGGACAAGTTT […]-3′ (SEQ ID NO. 1) (with AttB1 recombination site in bold and thrombin protease cleavage site in italics) and 5′-[…] GCTG-3′ (SEQ ID NO. 2) (with AttB2 recombination site in bold) which conferred Gateway recombination sites. The PCR product was used in a BP recombination reaction with pDONR221 to generate pENTR Thm-PDE10A2(S449-D789) which was DNA sequence verified and then used in an LR recombination reaction with a Gateway modified version of pET11a. The resulting expression vector, placT7.2H6-(gw1)-Thm-PDE10A2(S449-D789) was DNA sequence confirmed and transformed into E. coli strain BL21(DE3) pLysS and recombinant protein was produced in TB medium at 20° C. by induction to a final IPTG concentration of 0.5 mM at an optical density of 1.0 at 600 nm for 20 hours. About 30% of the protein was in the soluble fraction of the cell homogenate. The protein was purified using sequential chromatography on Ni-NTA and HiTrapQ/HiTrapS. After thrombin digest at room temperature a HiTrapChelating/HiTrap Benzamindin chromatography removed impurities, uncleaved protein and thrombin. Final purification of PDE10A2(S449-D789) was performed on a Superdex 75 size exclusion chromatography equilibrated with 25 mM HEPES pH 8.4, 0.15 M NaCl. The yield of pure protein was 2 mg/liter of culture volume is relatively low. The purity of the protein was >95%, monomeric and monodisperse as shown by SDS-PAGE, HPLC and analytical ultracentrifugation.

T1 sequence (Q9Y233 715-1055): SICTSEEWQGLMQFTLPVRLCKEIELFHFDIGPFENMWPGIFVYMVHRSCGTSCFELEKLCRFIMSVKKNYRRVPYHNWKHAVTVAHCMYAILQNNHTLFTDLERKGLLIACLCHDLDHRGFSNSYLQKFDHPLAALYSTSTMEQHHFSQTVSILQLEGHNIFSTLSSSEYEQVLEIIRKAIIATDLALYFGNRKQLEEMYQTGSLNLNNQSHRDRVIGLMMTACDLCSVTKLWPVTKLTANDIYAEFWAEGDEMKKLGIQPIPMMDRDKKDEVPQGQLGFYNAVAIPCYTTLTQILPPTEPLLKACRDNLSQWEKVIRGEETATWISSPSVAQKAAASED

Structure (SMILES)	IC50 [nM]
CS(=O)(=O)c1cccc(-n2ccc(=O)c(-c3ccnn3-c3cccc(C#N)c3)n2)c1 [Example 94, 3-{5-[1-(3-Methanesulfonyl-phenyl)-4-oxo-1,4-dihydro-pyridazin-3-yl]-pyrazol-1-yl}-benzonitrile]	55
COc1ccc(-c2csc(-n3nccc3-c3nn(-c4cccc(S(C)(=O)=O)c4)ccc3=O)n2)c(F)c1 [Example 95, 3-{2-[4-(2-Fluoro-4-methoxy-phenyl)-thiazol-2-yl]-2H-pyrazol-3-yl}-1-(3-methanesulfonyl-phenyl)-1H-pyridazin-4-one]	1200
O=c1ccn(-c2cccc(OC(F)F)c2)nc1-c1ccnn1-c1cccc(F)c1 [Example 98, 1-(3-Difluoromethoxy-phenyl)-3-[2-(3-fluoro-phenyl)-2H-pyrazol-3-yl]-1H-pyridazin-4-one]	222
O=c1ccn(-c2ccc(OC(F)F)cc2)nc1-c1ccnn1-c1cccc(F)c1 [Example 100, 1-(4-Difluoromethoxy-phenyl)-3-[2-(3-fluoro-phenyl)-2H-pyrazol-3-yl]-1H-pyridazin-4-one]	105
O=c1ccn(-c2ccc3c(c2)OC(F)(F)O3)nc1-c1ccnn1-c1ccc2c(c1)OCCO2 [Example 101, 1-(2,2-Difluoro-benzo[1,3]dioxol-5-yl)-3-[2-(2,3-dihydro-benzo[1,4]dioxin-6-yl)-2H-pyrazol-3-yl]-1H-pyridazin-4-one]	37
CS(=O)(=O)c1cccc(-n2ccc(=O)c(-c3ccnn3-c3ccc(F)cc3F)n2)c1 [Example 105, 3-[2-(2,4-Difluoro-phenyl)-2H-pyrazol-3-yl]-1-(3-methanesulfonyl-phenyl)-1H-pyridazin-4-one]	54
CS(=O)(=O)c1cccc(-n2ccc(=O)c(-c3ccnn3-c3cccc4c3OCO4)n2)c1 [Example 106, 3-(2-Benzo[1,3]dioxol-4-yl-2H-pyrazol-3-yl)-1-(3-methanesulfonyl-phenyl)-1H-pyridazin-4-one]	40
O=c1ccn(-c2cccc(F)c2)nc1-c1ccnn1-c1ccc2c(c1)OCO2 [Example 109, 3-(2-Benzo[1,3]dioxol-5-yl-2H-pyrazol-3-yl)-1-(3-fluoro-phenyl)-1H-pyridazin-4-one]	72
N#Cc1cccc(-n2nccc2-c2nn(-c3cccc4c3OCO4)ccc2=O)c1 [Example 114, 3-[5-(1-Benzo[1,3]dioxol-4-yl-4-oxo-1,4-dihydro-pyridazin-3-yl)-pyrazol-1-yl]-benzonitrile]	82
O=c1ccn(-c2cccc(OC(F)F)c2)nc1-c1ccnn1-c1cc(F)ccc1F [Example 116, 1-(3-Difluoromethoxy-phenyl)-3-[2-(2,5-difluoro-phenyl)-2H-pyrazol-3-yl]-1H-pyridazin-4-one]	33
CS(=O)(=O)c1cccc(-n2ccc(=O)c(-c3ccnn3-c3cccc(OC(F)(F)F)c3)n2)c1 [Example 122, 1-(3-Methanesulfonyl-phenyl)-3-[2-(3-trifluoromethoxy-phenyl)-2H-pyrazol-3-yl]-1H-pyridazin-4-one]	28
Cc1cc(-n2nccc2-c2nn(-c3cccc(OC(F)(F)F)c3)ccc2=O)ccn1 [Example 124, 3-[2-(2-Methyl-pyridin-4-yl)-2H-pyrazol-3-yl]-1-(3-trifluoromethoxy-phenyl)-1H-pyridazin-4-one]	57
N#Cc1cccc(-n2nccc2-c2nn(-c3cccc4c3OC(F)(F)O4)ccc2=O)c1 [Example 129, 3-{5-[1-(2,2-Difluoro-benzo[1,3]dioxol-4-yl)-4-oxo-1,4-dihydro-pyridazin-3-yl]-pyrazol-1-yl}-benzonitrile]	80
Cc1cc(-n2nccc2-c2nn(-c3cccc(S(=O)(=O)N(C)C)c3)ccc2=O)ccn1 [Example 133, N,N-Dimethyl-3-{3-[2-(2-methyl-pyridin-4-yl)-2H-pyrazol-3-yl]-4-oxo-4H-pyridazin-1-yl}-benzenesulfonamide]	71
O=c1ccn(-c2ccc(OC(F)(F)F)cc2)nc1-c1ccnn1-c1ccc(F)cc1 [Example 138, 3-[2-(4-Fluoro-phenyl)-2H-pyrazol-3-yl]-1-(4-trifluoromethoxy-phenyl)-1H-pyridazin-4-one]	37
O=c1ccn(-c2ccc(OC(F)(F)F)cc2)nc1-c1ccnn1-c1cccc2c1OC(F)(F)O2 [Example 145, 3-[2-(2,2-Difluoro-benzo[1,3]dioxol-4-yl)-2H-pyrazol-3-yl]-1-(4-trifluoromethoxy-phenyl)-1H-pyridazin-4-one]	72
O=c1ccn(-c2ccc(OC(F)F)cc2)nc1-c1ccnn1-c1ccnc2ccc(F)cc12 [Example 149, 1-(4-Difluoromethoxy-phenyl)-3-[2-(6-fluoro-quinolin-4-yl)-2H-pyrazol-3-yl]-1H-pyridazin-4-one]	14
O=c1ccn(-c2cccc(OC(F)F)c2)nc1-c1ccnn1-c1ccnc2ccc(F)cc12 [Example 150, 1-(3-Difluoromethoxy-phenyl)-3-[2-(6-fluoro-quinolin-4-yl)-2H-pyrazol-3-yl]-1H-pyridazin-4-one]	5
CS(=O)(=O)c1ccc(-n2ccc(=O)c(-c3ccnn3-c3ccc(F)cc3)n2)cc1 [Example 153, 3-[2-(4-Fluoro-phenyl)-2H-pyrazol-3-yl]-1-(4-methanesulfonyl-phenyl)-1H-pyridazin-4-one]	67
CS(=O)(=O)c1ccc(-n2ccc(=O)c(-c3ccnn3-c3cccc(Cl)c3)n2)cc1 [Example 157, 3-[2-(3-Chloro-phenyl)-2H-pyrazol-3-yl]-1-(4-methanesulfonyl-phenyl)-1H-pyridazin-4-one]	92
O=c1ccn(-c2cccc(OC(F)(F)F)c2)nc1-c1ccnn1-c1ccc2c(c1)OC(F)(F)O2 [Example 162, 3-[2-(2,2-Difluoro-benzo[1,3]dioxol-5-yl)-2H-pyrazol-3-yl]-1-(3-trifluoromethoxy-phenyl)-1H-pyridazin-4-one]	155
O=c1ccn(-c2ccc(OC(F)F)cc2)nc1-c1ccnn1-c1cccc(OC(F)(F)F)c1 [Example 165, 1-(4-Difluoromethoxy-phenyl)-3-[2-(3-trifluoromethoxy-phenyl)-2H-pyrazol-3-yl]-1H-pyridazin-4-one]	51
O=c1ccn(-c2cccc(OC(F)F)c2)nc1-c1ccnn1-c1ccccc1F [Example 171, 1-(3-Difluoromethoxy-phenyl)-3-[2-(2-fluoro-phenyl)-2H-pyrazol-3-yl]-1H-pyridazin-4-one]	46
O=c1ccn(-c2ccc3c(c2)OC(F)(F)O3)nc1-c1ccnn1-c1ccccc1F [Example 174, 1-(2,2-Difluoro-benzo[1,3]dioxol-5-yl)-3-[2-(2-fluoro-phenyl)-2H-pyrazol-3-yl]-1H-pyridazin-4-one]	184
Cc1cc(-n2nccc2-c2nn(-c3cccc(OC(F)(F)F)c3)ccc2=O)c2cc(F)ccc2n1 [Example 177, 3-[2-(6-Fluoro-2-methyl-quinolin-4-yl)-2H-pyrazol-3-yl]-1-(3-trifluoromethoxy-phenyl)-1H-pyridazin-4-one]	27
O=c1ccn(-c2ccccc2)nc1-c1ccnn1-c1ccccc1F [Example 183, 3-[2-(2-Fluoro-phenyl)-2H-pyrazol-3-yl]-1-phenyl-1H-pyridazin-4-one]	47
O=c1ccn(-c2ccc(OC(F)(F)F)cc2)nc1-c1ccnn1-c1ccnc2ccccc12 [Example 186, 3-(2-Quinolin-4-yl-2H-pyrazol-3-yl)-1-(4-trifluoromethoxy-phenyl)-1H-pyridazin-4-one]	2
